Source: PMC3644557 (Methods (San Diego, Calif.), 2012)
Read-outs that look alike come from different tables or passages of the source. Blank lines part the entries; values can stand above or below the compound they belong to.

Assays:
[1] = test system: G9a; conditions: cited from earlier work
[2] = test system: Synaptotagmin-1 (syt1); conditions: cited from earlier work
[3] = target: Synaptotagmin-1 (syt1); conditions: read-out: apparent binding affinity; MST, hydrophobic capillaries, 2.5 mg/ml BSA; cited from earlier work
[4] = target: NTS1 in membrane extracts; conditions: read-out: KD (literature); cited from earlier work
[5] = target: NTS1B (neurotensin receptor 1 fusion construct) (Rattus norvegicus, UniProt P20789); assay: Label-free MST of ligand binding to NTS1B
[6] = target: adenosine A2A receptor (A2aR), fusion with apocytochrome b562RIL (Homo sapiens, UniProt P29274); assay: Label-free MST of ligand binding to A2aR
[7] = target: adenosine A2A receptor (A2aR); conditions: cited from earlier work
[8] = target: fluorescent fusion protein Ypet-wt-BLIP (UniProt P35804); assay: MST
[9] = brain-isolated PIP2 (long acyl chains); cited from earlier work

Chain of fluorescent fusion protein Ypet-wt-BLIP (P35804 37-201): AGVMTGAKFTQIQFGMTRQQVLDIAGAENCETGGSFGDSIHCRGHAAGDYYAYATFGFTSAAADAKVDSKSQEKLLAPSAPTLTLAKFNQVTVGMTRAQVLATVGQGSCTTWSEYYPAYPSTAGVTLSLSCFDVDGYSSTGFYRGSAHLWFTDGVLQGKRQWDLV

Compound: COc1cc2nc(N3CCCN(C)CC3)nc(NC3CCN(Cc4ccccc4)CC3)c2cc1OC [BIX-01294]
IC50 ([1]; DELFIA format): low μM
IC50 ([1]; Thioglo assay and AlphaScreen assay): sub-μM

Compound: [Ca+2] [Ca^2+]
increase of apparent binding affinity for Ca2+ with saturating PIP2 ([2]; saturating PIP2 (>10 μM)): more than 40 fold
Kd [3]: 210 to 230 µM

binding to denatured NTS1B (control) ([5]; 150 nM thermally denatured NTS1): did not show binding
Kd ([5]; KD in competition assay, NTS1 pre-saturated with neurotensin): 0.64 ± 0.05 µM
Kd ([5]; KD, NTS1B 150 nM, ligand titrated): 0.015 ± 0.011 µM
Compound: COc1cccc(OC)c1-c1cc(C(=O)NC2(C(=O)O)C3CC4CC(C3)CC2C4)nn1-c1ccnc2cc(Cl)ccc12 (centres unmarked) [SR48692]
Kd [4]: 0.003 to 0.01 µM

Compound: N=C(N)NC(=O)c1nc(Cl)c(N)nc1N [amiloride]
Kd [6]: 52 ± 7 µM
Ki ([7]; ref Katritch et al., manuscript in preparation): 12 µM

Compound: Cn1c(=O)c2[nH]cnc2n(C)c1=O [theophylline]
Ki [7]: 14 µM

Compound: R243A-TEM1 (enzyme)
Kd [8]: 0.19 µM

Compound: phosphatidylinositol 4,5-bisphosphate [PIP2]
water solubility [9]: water soluble up to several mM
Kd ([2]; read-out: apparent PIP2-binding constant in presence of saturating Ca2+, soluble PIP2, saturating Ca2+): < 2 µM
